Like-named read-outs stand apart in the source and are kept apart here.
Key:
[1] = tested on: MX-1 Human Breast Carcinoma Xenograft; experiment: In vivo evaluation of oral administration of antitumor compounds against MX-1 human breast carcinoma xenograft (Example 25)
Text: This study investigated the efficacy of various antitumor compounds when administered orally against the MX-1 human breast carcinoma xenograft.
The study was terminated on Day 63.

[2] = tested on: SKMES Human Lung Carcinoma Xenograft
Experimental: The antitumor compound was prepared in the following vehicle: 10% ethanol and 90% Liposyn III.
Female Nu/Nu mice (6-8 weeks of age; implanted with 1 mm^3 SKMES lung carcinoma fragments in the flank) were sorted into treatment groups of six mice each. SKMES size ranges and group mean SKMES size ranges were 126-448 mg and 238-241 mg, respectively. […] Treatments were administered as a single i.v. bolus on Day 1, and the study was terminated on Day 60.
The mean days of survival is the number of days after which a SKMES neoplasm reached a size of 2.0 g and the animal was euthanized. A complete response is obtained if the tumor is not palpable at the end of the study. A partial response is obtained if the tumor shrinks to a size smaller than its size on Day 1 of the study.

[3] = 107 mg/kg single oral bolus, 6 mice/group, study end Day 63
[4] = 15 mg/kg single i.v. bolus Day 1, 6 mice/group, study end Day 60
[5] = 62 mg/kg single i.v. bolus Day 1, 6 mice/group, study end Day 60
[6] = 108 mg/kg single i.v. bolus Day 1, 6 mice/group, study end Day 60
[7] = 154 mg/kg single i.v. bolus Day 1, 6 mice/group, study end Day 60

CCC(=O)O[C@H]1C[C@H]2OC[C@@]2(OC(C)=O)[C@H]2[C@H](OC(=O)c3ccccc3)[C@]3(O)C[C@H](OC(=O)[C@H](O)[C@H](C=C(C)C)NC(=O)OC(C)(C)C)C(C)=C([C@@H](O)C(=O)[C@]12C)C3(C)C [Compound 1351]
Maximum Weight Loss (Day) ([1]; 107 mg/kg single oral bolus, 6 mice/group, on Day 5): -9.1% (5)
Partial Response [1, 3]: 0
Stable Disease [1, 3]: 1
Toxic Deaths [1, 3]: 0
Mean Day of Survival (n) ([1]; 107 mg/kg single oral bolus, 6 mice/group, study end Day 63, days until tumor reached 1.5 g): 46.2 ± 5.1 (5) days
survival compared to vehicle control mice ([1]; MX-1, single oral bolus, doses of Table 22, Day 63): significant survival extensions
Complete Response ([1]; po, 107 mg/kg, 1512 h): 0

CCC(=O)O[C@H]1C[C@H]2OC[C@@]2(OC(C)=O)[C@H]2[C@H](OC(=O)c3ccccc3)[C@]3(O)C[C@H](OC(=O)[C@H](O)[C@@H](NC(=O)OC(C)(C)C)c4cccs4)C(C)=C([C@@H](O)C(=O)[C@]12C)C3(C)C [Compound 1418]
Survivors [2, 4]: 0
Toxic Deaths [2, 4]: 0
Survivors [2, 5]: 0
Toxic Deaths [2, 5]: 0
MDS (n) ([2]; 62 mg/kg single i.v. bolus Day 1, 6 mice/group, study end Day 60, days until tumor reached 2.0 g): 35.3 ± 3.3 (6) days
Survivors [2, 6]: 3
Toxic Deaths [2, 6]: 0
Survivors [2, 7]: 5
Toxic Deaths [2, 7]: 0
MDS ([2]; SKMES, 1418 single i.v. bolus 62 mg/kg (Group 4), 2.0 g cut-off): 35.3 days
% Total Response ([2]; iv, 15 mg/kg): 0%
Complete Responses ([2]; iv, 15 mg/kg): 0
MDS (n) ([2]; iv, 15 mg/kg): 21.2 ± 2.9 (6) days
Partial Responses ([2]; iv, 15 mg/kg): 0
% Total Response ([2]; iv, 62 mg/kg): 0%
Complete Responses ([2]; iv, 62 mg/kg): 0
Partial Responses ([2]; iv, 62 mg/kg): 0
% Total Response ([2]; iv, 108 mg/kg): 50.0%
Complete Responses ([2]; iv, 108 mg/kg): 1
MDS (n) ([2]; iv, 108 mg/kg): 40.6 ± 2.9 (3) days
Partial Responses ([2]; iv, 108 mg/kg): 2
% Total Response ([2]; iv, 154 mg/kg): 83.3%
Complete Responses ([2]; iv, 154 mg/kg): 5
Partial Responses ([2]; iv, 154 mg/kg): 0

Source: patent EP1285918A1, “C7 Ester substituted taxanes as antitumor agents” (Florida State University Research Foundation, Inc., priority 2001, dated 2003)
